Source: patent publication US12458647B2, “Macrocyclic derivative and use thereof” (Guangzhou Joyo Pharmatech Co., Ltd., priority 2022, dated 2025)

Legend:
SW620 cells = test: In vitro cell proliferation experiment (5 days), SW620; assay type: cell-based; conditions: SW620, 5 days; read-out: Inhibitory Activity IC50
Method: (§1) RPMI 1640 medium, DMEM, Ham's F12 medium, F12K medium, IMDM and penicillin/streptomycin antibiotics were purchased from Gibco, fetal bovine serum was purchased from Hyclone, Envision multilabel plate reader (PerkinElmer). […]
(§2) The test compound was diluted by 5-fold to 8 concentrations with a pipette, i.e., from 2 mM to 25.6 nM, and replicate wells were set up for the experiment. […] Another cell plate was prepared, and the signal value was read as the maximum value (the maximum value in the following equation) on the day of dosing for data analysis.
(§3) 50 μL of cell viability chemiluminescent detection reagent was added to the cell plate and incubated at room temperature for 30 minutes to stabilize the luminescence signal. A multilabel plate reader was used for reading. […]

A375 cell line = test: In vitro cell proliferation experiment (5 days), A375 (wild-type independent cell line); assay type: cell-based; conditions: A375, 5 days; read-out: Inhibitory Activity IC50
Method: as §1, §2, §3

GP2D cell line = test: In vitro cell proliferation experiment (5 days, 3D CellTiter-Glo), GP2D; assay type: cell-based; conditions: read-out: Inhibitory Activity IC50
Method: as §1, §2, §3

HCT116 cells = test: In vitro cell proliferation experiment (5 days), HCT116; assay type: cell-based; conditions: HCT116, 5 days; read-out: Inhibitory Activity IC50
Method: as §1, §2, §3

A427 cell line = test: In vitro cell proliferation experiment (5 days), A427; assay type: cell-based; conditions: A427, 5 days; read-out: Inhibitory Activity IC50
Method: as §1, §2, §3

Capan-1 cells = test: In vitro cell proliferation experiment (5 days), Capan-1; assay type: cell-based; conditions: Capan-1, 5 days; read-out: Inhibitory Activity IC50
Method: as §1, §2, §3

NCI—H727 cells = test: In vitro cell proliferation experiment (5 days), H727; assay type: cell-based; conditions: H727, 5 days; read-out: Inhibitory Activity IC50
Method: as §1, §2, §3

A549 cells = test: In vitro cell proliferation experiment (5 days), A549; assay type: cell-based; conditions: A549, 5 days; read-out: Inhibitory Activity IC50
Method: as §1, §2, §3

[1] = Pharmacokinetics test in mice; assay type: in vivo, male CD-1 (ICR) mice; conditions: male CD-1 mice
Method: The pharmacokinetic behavior of the compounds of the present disclosure was evaluated in male CD-1 (ICR) mice.
The compounds to be tested were dissolved in the vehicle (5% DMSO/10% solutol/85% water). Four male CD-1 mice were divided into 2 groups of 2 mice each. Group 1 mice were administered a single intravenous bolus injection of the compound at a dose of 1 mg/kg. Group 2 mice were administered a single dose of the compound by gavage at a dose of 10 mg/kg. Whole blood samples were collected at 0.083 (intravenous bolus group only), 0.25, 0.5, 1, 2, 4, 8 and 24 hours after dosing. The LC-MS/MS method was used to determine the concentration of the test compound in whole blood samples.

[2] = intravenous bolus 1 mg/kg, whole blood

| IC50 (SW620 cells) [nM] | IC50 (A375 cell line) [nM] | IC50 (HCT116 cells) [nM] | IC50 (A549 cells) [nM] | bioavailability (F) ([1]; gavage 10 mg/kg vs i.v. 1 mg/kg) [%] | AUC0-last ([1]; gavage 10 mg/kg, whole blood) | time to maximum concentration (τmax) ([1]; gavage 10 mg/kg, whole blood) [h] | apparent volume of distribution at steady state (Vd) [1, 2] [L/kg] | area under the whole blood concentration-time curve (AUC0-last) [1, 2] [µM·h] | elimination half-life (T1/2) [1, 2] [h] | whole blood clearance (C1) [1, 2] [mL/min/kg] | Compound | IC50 (GP2D cell line) [nM] | IC50 (A427 cell line) [nM] | IC50 (Capan-1 cells) [nM] | IC50 (NCI—H727 cells) [nM] |
| --- | --- | --- | --- | --- | --- | --- | --- | --- | --- | --- | --- | --- | --- | --- | --- |
| 0.2 | > 6000 | 5.5 | 4.1 | – | – | – | – | – | – | – | CCn1c(-c2cc(N3CCN(C)CC3)cnc2C(C)OC)c2c3cc(ccc31)-c1csc(n1)CC(NC(=O)C1C(C)C1C)C(=O)N1NC(C(=O)OCC(C)(C)C2)C2CC1C2 (single isomer, unassigned) [Compound 6A] | 0.9 | 13.3 | 2.5 | 0.4 |
| – | – | – | – | 54.3 | 17,119 h·nmol/mL | 3.0 | 2.18 | 3.160 | 4.29 | 6.29 | CCn1c(-c2cc(N3CCN(C)CC3)cnc2C(C)OC)c2c3cc(ccc31)-c1csc(n1)CC(NC(=O)C1CC1C)C(=O)N1NC(C(=O)OCC(C)(C)C2)C2CC1C2 (single isomer, unassigned) [Compound 7A] | – | – | – | – |
